pEC50: −log10 of the molar value.
What was measured:
[1] = system: genotype 1b-Con1 subgenomic replicon cell line; assay: microbe, parasite or virus in culture; assay type: cell-based, HCV; conditions: Hepatitis C virus, read-out: EC50 1b
[2] = system: genotype 1a-H77 subgenomic replicon cell line; assay: microbe, parasite or virus in culture; assay type: cell-based, HCV; conditions: Hepatitis C virus, read-out: EC50 1a

Row | Structure (SMILES) | pEC50 [1] | pEC50 [2]
1 | COc1c(/C=C(/F)c2ccc(NS(C)(=O)=O)cc2)cc(N2CCC(=O)NC2=O)cc1C(C)(C)C [IA-L1-1.5, (E)-N-(4-(2-(3-tert-butyl-5-(2,4-dioxotetrahydropyrimidin-1(2H)-yl)-2-methoxyphenyl)-1-fluorovinyl)phenyl)methanesulfonamide] | > 8.00 | 7.00 to 8.00
2 | COc1c(/C=C/c2ccc(NS(C)(=O)=O)cc2)cc(-n2ccc(=O)[nH]c2=O)cc1-c1ccoc1 [IB-L1-1.50, (E)-N-(4-(5-(2,4-dioxo-3,4-dihydropyrimidin-1(2H)-yl)-3-(furan-3-yl)-2-methoxystyryl)phenyl)methanesulfonamide] | 7.00 to 8.00 | 6.00 to 7.00
3 | CCOc1c(/C=C/c2ccc(NS(C)(=O)=O)cc2)cc(-n2ccc(=O)[nH]c2=O)cc1C(C)(C)C [IB-L1-1.30, (E)-N-(4-(3-tert-butyl-5-(2,4-dioxo-3,4-dihydropyrimidin-1(2H)-yl)-2-ethoxystyryl)phenyl)methanesulfonamide] | 7.00 to 8.00 | 6.00 to 7.00
4 | COc1c(C2CC2c2ccc(NS(C)(=O)=O)cc2)cc(N2CCC(=O)NC2=O)cc1C(C)(C)C (stereo not shown) [IA-L8-1.1, N-(4-(2-(3-tert-butyl-5-(2,4-dioxotetrahydropyrimidin-1(2H)-yl)-2-methoxyphenyl)cyclopropyl)phenyl)methanesulfonamide] | 6.00 to 7.00 | 6.00 to 7.00
5 | COc1c(-c2ccc3c(c2)CCN3S(C)(=O)=O)cc(-n2ccc(=O)[nH]c2=O)cc1C(C)(C)C [IB-L0-2.32, 1-(3-tert-butyl-4-methoxy-5-(1-(methylsulfonyl)indolin-5-yl)phenyl)pyrimidine-2,4(1H,3H)-dione] | 7.00 to 8.00 | 6.00 to 7.00
6 | COc1c(-c2ccc3c(c2)CC[C@]3(F)CNS(C)(=O)=O)cc(-n2ccc(=O)[nH]c2=O)cc1C(C)(C)C [IB-L0-2.10, (R)—N-((5-(3-tert-butyl-5-(2,4-dioxo-3,4-dihydropyrimidin-1(2H)-yl)-2-methoxyphenyl)-1-fluoro-2,3-dihydro-1H-inden-1-yl)methyl)methanesulfonamide] | > 8.00 | > 8.00
7 | COc1c(-c2ccc3c(C)coc3c2)cc(-n2ccc(=O)[nH]c2=O)cc1C(C)(C)C [IB-L0-2.42, 1-(3-tert-butyl-4-methoxy-5-(3-methylbenzofuran-6-yl)phenyl)-pyrimidine-2,4(1H,3H)-dione] | 6.00 to 7.00 | 6.00 to 7.00
8 | COc1c(/C=C/c2ccc(NS(C)(=O)=O)cc2)cc(-n2ccc(=O)[nH]c2=O)cc1-c1ccsc1 [IB-L1-1.47, (E)-N-(4-(5-(2,4-dioxo-3,4-dihydropyrimidin-1(2H)-yl)-2-methoxy-3-(thiophen-3-yl)styryl)phenyl)methanesulfonamide] | 7.00 to 8.00 | 6.00 to 7.00
9 | COc1c(/C=C/c2cc(F)c(NS(C)(=O)=O)cc2C)cc(-n2ccc(=O)[nH]c2=O)cc1C(C)(C)C [IB-L1-1.15, (E)-N-(4-(3-tert-butyl-5-(2,4-dioxo-3,4-dihydropyrimidin-1 (2H)-yl)-2-methoxystyryl)-2-fluoro-5-methylphenyl)methanesulfonamide] | > 8.00 | > 8.00
10 | CNC(=O)c1cc(NS(C)(=O)=O)ccc1/C=C/c1cc(-n2ccc(=O)[nH]c2=O)cc(C(C)(C)C)c1OC [IB-L1-1.17, 2-{(E)-2-[3-tert-butyl-5-(2,4-dioxo-3,4-dihydro-2H-pyrimidin-1-yl)-2-methoxy-phenyl]-vinyl}-5-methanesulfonylamino-N-methyl-benzamide] | > 8.00 | 7.00 to 8.00
11 | COc1c(/C=C/c2ccc(NS(C)(=O)=O)cc2C(=O)N2CCC2)cc(-n2ccc(=O)[nH]c2=O)cc1C(C)(C)C [IB-L1-1.22, N-(3-(azetidine-1-carbonyl)-4-{(E)-2-[3-tert-butyl-5-(2,4-dioxo-3,4-dihydro-2H-pyrimidin-1-yl)-2-methoxy-phenyl]-vinyl}-phenyl)-methanesulfonamide] | > 8.00 | 7.00 to 8.00
12 | COc1c(/C=C/c2ccc(NS(C)(=O)=O)cc2)cc(-n2ccc(=O)[nH]c2=O)cc1C(C)(C)CO [IB-L1-1.45, (E)-N-(4-(5-(2,4-dioxo-3,4-dihydropyrimidin-1(2H)-yl)-3-(1-hydroxy-2-methylpropan-2-yl)-2-methoxystyryl)phenyl)methanesulfonamide] | > 8.00 | 7.00 to 8.00
13 | COc1c(/C=C/c2ccc(NS(C)(=O)=O)cc2)cc(-n2ccc(=O)[nH]c2=O)cc1S(C)(=O)=O [IB-L1-1.49, (E)-N-(4-(5-(2,4-dioxo-3,4-dihydropyrimidin-1(2H)-yl)-2-methoxy-3-(methylsulfonyl)styryl)phenyl)methanesulfonamide] | < 6.00 | < 6.00
14 | COc1c(/C=C/c2ccc(NS(C)(=O)=O)cc2C(=O)N2CCCC2)cc(-n2ccc(=O)[nH]c2=O)cc1C(C)(C)C [IB-L1-1.27, N-[4-{(E)-2-[3-tert-butyl-5-(2,4-dioxo-3,4-dihydro-2H-pyrimidin-1-yl)-2-methoxy-phenyl]-vinyl}-3-(pyrrolidine-1-carbonyl)-phenyl]-methanesulfonamide] | > 8.00 | 7.00 to 8.00
15 | COc1c(-c2ccc3nc(N)sc3c2)cc(-n2ccc(=O)[nH]c2=O)cc1C(C)(C)C [IB-L0-2.27, 1-(3-(2-aminobenzo[d]thiazol-6-yl)-5-tert-butyl-4-methoxy-phenyl)pyrimidine-2,4(1H,3H)-dione] | 7.00 to 8.00 | 6.00 to 7.00
16 | COc1c(-c2ccsc2)cc(-n2ccc(=O)[nH]c2=O)cc1-c1ccc2cc(NS(C)(=O)=O)ccc2c1 [IB-L0-2.53, N-(6-(5-(2,4-dioxo-3,4-dihydropyrimidin-1(2H)-yl)-2-methoxy-3-(thiophen-3-yl)phenyl)naphthalen-2-yl)methanesulfonamide] | 7.00 to 8.00 | 7.00 to 8.00
17 | COc1c(/C=C/c2ccc(N)cc2)cc(N2CCC(=O)NC2=O)cc1C(C)(C)C [IA-L1-1.13, (E)-1-(3-(4-aminostyryl)-5-tert-butyl-4-methoxyphenyl)dihydropyrimidine-2,4(1H,3H)-dione] | 6.00 to 7.00 | < 6.00
18 | COc1ccc2cc(-c3cc(-n4ccc(=O)[nH]c4=O)cc(C(C)(C)C)c3OC)ccc2c1 [IB-L0-2.2, 1-(3-tert-butyl-4-methoxy-5-(6-methoxynaphthalen-2-yl)phenyl)pyrimidine-2,4(1H,3H)-dione] | < 6.00 | < 6.00
19 | COc1c(C=C(F)c2ccc(NS(C)(=O)=O)cc2)cc(N2CCC(=O)NC2=O)cc1C(C)(C)C (racemic) [IA-L1-1.21, N-(4-(2-(3-tert-butyl-5-(2,4-dioxotetrahydropyrimidin-1(2H)-yl)-2-methoxyphenyl)-1-fluorovinyl)phenyl)methanesulfonamide] | > 8.00 | > 8.00
20 | CC(C)(C)c1cc(-n2ccc(=O)[nH]c2=O)cc(/C=C/c2ccc(NS(C)(=O)=O)cc2)c1Cl [IB-L1-1.12, N-(4-{(E)-2-[3-tert-Butyl-2-chloro-5-(2,4-dioxo-3,4-dihydro-2H-pyrimidin-1-yl)-phenyl]-vinyl}-phenyl)-methanesulfonamide] | 7.00 to 8.00 | 7.00 to 8.00
21 | COc1c(I)cc(-n2ccc(=O)[nH]c2=O)cc1-c1ccc2cc(NS(C)(=O)=O)ccc2c1 [IB-L0-2.57, N-(6-(5-(2,4-dioxo-3,4-dihydropyrimidin-1(2H)-yl)-3-iodo-2-methoxyphenyl)naphthalen-2-yl)methanesulfonamide] | 7.00 to 8.00 | 6.00 to 7.00
22 | COc1c(/C=C/c2ccc(NS(C)(=O)=O)c(F)c2)cc(N2CCC(=O)NC2=O)cc1C(C)(C)C [IA-L1-1.26, (E)-N-(4-(3-tert-butyl-5-(2,4-dioxotetrahydropyrimidin-1(2H)-yl)-2-methoxystyryl)-2-fluorophenyl)methanesulfonamide] | 7.00 to 8.00 | 7.00 to 8.00
23 | COc1c(/C=C(\F)c2ccc(NS(C)(=O)=O)cc2)cc(N2CCC(=O)NC2=O)cc1C(C)(C)C [IA-L1-1.4, (Z)—N-(4-(2-(3-tert-butyl-5-(2,4-dioxotetrahydropyrimidin-1(2H)-yl)-2-methoxyphenyl)-1-fluorovinyl)phenyl)methanesulfonamide] | > 8.00 | > 8.00
24 | COc1c(/C=C/c2ccc(NS(C)(=O)=O)cc2C=NO)cc(-n2ccc(=O)[nH]c2=O)cc1C(C)(C)C [IB-L1-1.8, N-(4-{(E)-2-[3-tert-Butyl-5-(2,4-dioxo-3,4-dihydro-2H-pyrimidin-1-yl)-2-methoxy-phenyl]-vinyl}-3-(hydroxyimino-methyl)-phenyl)-methanesulfonamide] | > 8.00 | 7.00 to 8.00
25 | COc1c(/C=C/c2ccc(NS(C)(=O)=O)cc2N)cc(-n2ccc(=O)[nH]c2=O)cc1C(C)(C)C [IB-L1-1.28, (E)-N-(3-amino-4-(3-tert-butyl-5-(2,4-dioxo-3,4-dihydropyrimidin-1(2H)-yl)-2-methoxystyryl)phenyl)methanesulfonamide] | > 8.00 | > 8.00
26 | COc1c(-c2ccc3c(c2)CC=C3CN(C)S(C)(=O)=O)cc(-n2ccc(=O)[nH]c2=O)cc1C(C)(C)C [IB-L0-2.16, N-((6-(3-tert-butyl-5-(2,4-dioxo-3,4-dihydropyrimidin-1(2H)-yl)-2-methoxyphenyl)-1H-inden-3-yl)methyl)-N-methylmethanesulfonamide] | > 8.00 | 6.00 to 7.00
27 | COc1c(/C=C(\C)c2ccc(NS(C)(=O)=O)cc2)cc(N2CCC(=O)NC2=O)cc1C(C)(C)C [IA-L1-1.6, (E)-N-(4-(1-(3-tert-butyl-5-(2,4-dioxotetrahydropyrimidin-1(2H)-yl)-2-methoxyphenyl)prop-1-en-2-yl)phenyl)methanesulfonamide] | 7.00 to 8.00 | 7.00 to 8.00
28 | COc1c(-c2ccc3cc(NS(C)(=O)=O)ccc3c2)cc(-n2ccc(=O)[nH]c2=O)cc1-c1ccc(C)s1 [IB-L0-2.73, N-(6-(5-(2,4-dioxo-3,4-dihydropyrimidin-1(2H)-yl)-2-methoxy-3-(5-methylthiophen-2-yl)phenyl)naphthalen-2-yl)methanesulfonamide] | 6.00 to 7.00 | 6.00 to 7.00
29 | COc1c(-c2nc3ccc(NS(C)(=O)=O)cc3o2)cc(N2CCC(=O)NC2=O)cc1C(C)(C)C [IA-L0-2.5, N-(2-(3-tert-butyl-5-(2,4-dioxotetrahydropyrimidin-1(2H)-yl)-2-methoxyphenyl)benzo[d]oxazol-6-yl)methanesulfonamide] | < 6.00 | < 6.00

Source: patent US8415351B2 (priority 2007, dated 2013)
